# In patent publication US10022440B2, “Materials and methods for modulating immune responses” (UNIVERSITY OF FLORIDA RESEARCH FOUNDATION, INCORPORATED, priority 2011, dated 2018):
# Key:
# whole bone marrow cells = experiment: In vitro migration assay toward GM-CSF, bone marrow cells; assay type: cell-based, mouse; settings: for increase in cell migration: after 24 hrs, in the presence of GM-CSF, n=3 per group
# Description: (§1) An in vitro migration assay was performed to evaluate the migratory capacity of splenocytes and bone marrow cells toward GM-CSF. NOD, non-obese resistant (NOR), and C57/BL6 (n=3 per group) mouse cells were used in this assay.
# splenocytes = experiment: In vitro migration assay toward GM-CSF, splenocytes; assay type: cell-based, mouse; settings: for increase in cell migration: after 24 hrs, in the presence of GM-CSF, n=3 per group
# Description: as §1
substance,measurement,setting,value
GM-CSF,increase in cell migration,whole bone marrow cells; C57/BL6 whole bone marrow cells,100%
same,cell migration,"whole bone marrow cells; NOD bone marrow cells, compared with NOR and C57/BL6 bone marrow cells",migrated in a similar manner
same,increase in cell migration,whole bone marrow cells; NOR whole bone marrow cells,100%
same,increase in cell migration,splenocytes; C57/BL6 splenocytes,100%
same,migration ratios with or without GM-CSF,"splenocytes; NOD splenocytes, p<0.05",no difference
same,increase in cell migration,splenocytes; NOR splenocytes,100%
